Literature values as cited in patent EP1147779A1, “A method for rendering ursodeoxycholic acid in soluble form pharmaceutical compositions” (BIOPROGRESS S.p.A., priority 2000, dated 2001).

How the values were obtained:
[1] = ursodeoxycholic acid as such; background statement

In the case of `C[C@H](CCC(=O)O)[C@H]1CC[C@H]2[C@@H]3[C@@H](O)C[C@@H]4C[C@H](O)CC[C@]4(C)[C@H]3CC[C@]12C` [Ursodeoxycholic acid], the solubility [1] is given as “practically insoluble”.
In the case of β-cyclodextrin, the toxicity (general statement, allowed by FAO/WHO as food additive) is listed as “no toxicity” and the “passage of the intestinal mucosa / presence in plasma and urine” value (oral administration to humans) is listed as “does not overcome the barrier of the intestinal mucosa and is not found either in plasma or in urine”.
